Consider five compounds from patent US7781445B2, “Synthesis of indenoisoquinoliniums and methods of use” (Purdue Research Foundation, priority 2005, dated 2010).

One data set concerns DU-145. The experiment in a line: COMPARE screening (NCI), GI50 in DU-145. An excerpt:
(§1) This in vitro prescreening system is based on the measurement of anticancer cytotoxicity against human cancer cell line panels consisting of approximately 60 cell lines of major human cancers (including leukemia, and slower growing tumor cells such as lung, colon, breast, skin, kidney, etc.) and is referred hereinafter as “COMPARE” screening.
(§2) COMPARE screening. The compounds described herein were examined for antiproliferative activity against the human cancer cell lines in the National Cancer Institute screen (COMPARE screening), in which the activity of each compound was evaluated with approximately 55 different cancer cell lines of diverse tumor origins. […] Therefore, the MGM value represents an overall assessment of toxicity of the compound across numerous cell lines.

A further data set deals with OVCAR-3. The experiment in a line: COMPARE screening (NCI), GI50 in OVCAR-3. Conditions: OVCAR-3, concentration corresponding to 50% growth inhibition.
Description: as §1, §2

The next data set relates to SF-539. Description: COMPARE screening (NCI), GI50 in SF-539.
Description: as §1, §2

For a further data set, the system named is UACC-62. The experiment in a line: COMPARE screening (NCI), GI50 in UACC-62.
Description: as §1, §2

In another data set the test system is MDA-MB-435. Description: COMPARE screening (NCI), GI50 in MDA-MB-435.
Description: as §1, §2

The test system of a further data set is HCT-116. The experiment in a line: COMPARE screening (NCI), GI50 in HCT-116.
Description: as §1, §2

The test system of data set [1] is all human cancer cell lines successfully tested (approximately 55). The experiment in a line: COMPARE screening, mean graph midpoint (MGM). It is filed as cell-based. Conditions: average GI50 over all cell lines tested, values outside 10^-8 to 10^-4 molar taken as the limits, read-out: MGM (mean graph midpoint for growth inhibition); for MGM (mean GI50 across cell lines): Homo sapiens.
Description: as §1, §2

The test system of the next data set is SN12C. Description: COMPARE screening (NCI), GI50 in SN12C.
Description: as §1, §2

Another data set has as its system SR.
Description: as §1, §2

A further data set deals with HOP-62. The experiment in a line: COMPARE screening (NCI), GI50 in HOP-62.
Description: as §1, §2

A further data set deals with T1, topoisomerase I (Homo sapiens, UniProt P11387).
T1 sequence (P11387 1-765): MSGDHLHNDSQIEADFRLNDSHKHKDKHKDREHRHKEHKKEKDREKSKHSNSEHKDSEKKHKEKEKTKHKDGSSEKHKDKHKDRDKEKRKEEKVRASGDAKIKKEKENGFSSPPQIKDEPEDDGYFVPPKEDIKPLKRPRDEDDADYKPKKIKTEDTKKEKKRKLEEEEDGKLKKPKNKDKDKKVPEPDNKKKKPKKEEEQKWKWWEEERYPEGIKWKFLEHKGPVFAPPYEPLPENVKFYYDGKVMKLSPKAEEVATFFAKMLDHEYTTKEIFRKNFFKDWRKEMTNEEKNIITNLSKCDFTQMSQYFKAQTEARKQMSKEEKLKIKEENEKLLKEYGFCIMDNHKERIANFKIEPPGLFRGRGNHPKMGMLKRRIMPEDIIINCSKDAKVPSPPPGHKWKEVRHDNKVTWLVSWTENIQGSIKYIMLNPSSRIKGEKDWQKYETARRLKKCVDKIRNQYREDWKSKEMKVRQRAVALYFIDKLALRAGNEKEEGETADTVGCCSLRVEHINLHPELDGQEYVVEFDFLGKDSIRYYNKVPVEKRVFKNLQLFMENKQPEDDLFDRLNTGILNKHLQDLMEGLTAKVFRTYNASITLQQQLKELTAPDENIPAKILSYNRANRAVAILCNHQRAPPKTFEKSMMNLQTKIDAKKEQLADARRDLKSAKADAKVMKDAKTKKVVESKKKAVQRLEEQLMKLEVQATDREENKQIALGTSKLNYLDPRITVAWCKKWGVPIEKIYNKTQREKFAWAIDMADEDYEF
The experiment in a line: Topoisomerase I-mediated DNA cleavage, 3'-end-labeled 161 bp pBluescript SK(-) fragment. It is filed as biochemical. Conditions: tested at concentrations ranging up to 10 μM, semi-quantitative relative to compound A. As to the method:
The assays were carried out at room temperature for 30 min and stopped by adding 0.5% SDS. […] Topoisomerase I was present in all reaction mixtures except for the one corresponding to the first lane.
Induction of DNA cleavage.
Labeling reactions were followed by phenol-chloroform extraction and ethanol precipitation. […] Reactions were terminated by adding 0.5% SDS.
DNA Cleavage Semiquantitative Analysis. […] The rubberband baseline correction was applied with band detection sensitivity set at 90.

The mark [2] stands for this setting: Homo sapiens, DU-145, read-out: Cytotoxicity GI50, prostate DU-145, prostate, DU-145, concentration corresponding to 50% growth inhibition.
[3] abbreviates: Homo sapiens, OVCAR-3, read-out: Cytotoxicity GI50, ovarian OVCAR-3, ovarian.
Where [4] appears, read: Homo sapiens, read-out: Cytotoxicity GI50, CNS SF-539.
The mark [5] stands for this setting: Homo sapiens, UACC-62, read-out: Cytotoxicity GI50, melanoma UACC-62, melanoma, UACC-62, concentration corresponding to 50% growth inhibition.
Setting [6] is: Homo sapiens, MDA-MB-435, read-out: Cytotoxicity GI50, breast MDA-MB-435, breast, MDA-MB-435, concentration corresponding to 50% growth inhibition.
The mark [7] stands for this setting: Homo sapiens, HCT-116, read-out: Cytotoxicity GI50, colon HCT-116, colon, HCT-116, concentration corresponding to 50% growth inhibition.
The mark [8] stands for this setting: Homo sapiens, SN12C, read-out: Cytotoxicity GI50, renal SN12C, renal, SN12C, concentration corresponding to 50% growth inhibition.
Setting [9] is: Homo sapiens, HOP-62, read-out: Cytotoxicity GI50, lung HOP-62, lung, HOP-62, concentration corresponding to 50% growth inhibition.

Each structure is given as a SMILES string. Where two headings read alike, the source gives them in different places. A value given as a limit tells only on which side of the number the result lay.

In general, GI50 refers to the concentration at which growth is held to half of that of the control. For `COc1cc2c[n+](CCCNC(C)=O)c3c(c2cc1OC)C(=O)c1cc2c(cc1-3)OCO2` [Compound 6ab, 2,3-Dimethoxy-6-(3-N-acetylamino-1-propyl)-8,9-(methylenedioxy)-11-oxo-indeno[1,2-c]isoquinolinium Chloride], the GI50 amounted to 0.907 µM in the data set on DU-145; 12.2 µM in the data set with OVCAR-3 (read-out: Cytotoxicity GI50, ovarian OVCAR-3, ovarian); 0.0968 µM in the data set on SF-539; 3.43 µM with UACC-62; 0.466 µM in the data set on MDA-MB-435; 5.08 µM with HCT-116. Further, the GI50 in the data set on SN12C stood at 2.76 µM; with SR, 0.0929 µM; with HOP-62, 1 µM. The IC50 in data set [1] came to 7.96 µM.
As to `COc1ccc2c(c1OC)-c1ncc3c(OC)ccc(OC)c3c1C2.Cl` [Compound 9da, 1,4,7,8-Tetramethoxy-11H-indeno[1,2-c]isoquinoline Hydrochloride], the GI50 with DU-145 (setting [2]) stood at 28.1 µM; in the data set with OVCAR-3 (setting [3]) it was 15.4 µM; with SF-539 (setting [4]) it was 14 µM; with UACC-62 (setting [5]), 18 µM; in the data set with MDA-MB-435 (setting [6]), 23.4 µM; in the data set with HCT-116 (setting [7]), 17.8 µM. Further, the GI50 in the data set with SN12C (setting [8]) was 14.8 µM; in the data set with HOP-62 (setting [9]), 21.4 µM. On topoisomerase I (Table 2), the “Top 1 Cleavage” value is listed as 0 (0, no activity). Further, in data set [1], the MGM (mean GI50 across cell lines) turned out to be 18.6 µM.
Turning to `COc1cc2c3c(ncc2c(OC)c1OC)-c1c(ccc2c1OCO2)C3.Cl` [Compound 9cb, 2,3,4-Trimethoxy-7,8-methylenedioxy-11H-indeno[1,2-c]isoquinoline Hydrochloride], the GI50 was above 100 µM with DU-145 (setting [2]); 0.403 µM in the data set with OVCAR-3 (setting [3]); 0.869 µM with SF-539 (setting [4]); 0.439 µM in the data set with UACC-62 (setting [5]); 0.178 µM with MDA-MB-435 (setting [6]); 0.0694 µM in the data set on HCT-116 (setting [7]). The GI50 in the data set with SN12C (setting [8]) is 0.602 µM; in the data set with HOP-62 (setting [9]), 0.234 µM. Moreover, the “Top 1 Cleavage” value on topoisomerase I (Table 2) was “++ (++, similar activity as compound A)”. For the same compound, the MGM (mean GI50 across cell lines) in data set [1] turned out to be 2.01 µM.
Turning to `Cl.c1c2c(cc3c1OCO3)-c1ncc3cc4c(cc3c1C2)OCO4` [Compound 9bb, 2,3-Methylenedioxy-8,9-methylenedioxy-11H-indeno[1,2-c]isoquinoline Hydrochloride], the GI50 is 0.0232 µM with OVCAR-3 (setting [3]); 0.598 µM in the data set with SF-539 (setting [4]); 0.19 µM in the data set on UACC-62 (setting [5]); below 0.01 µM in the data set with MDA-MB-435 (setting [6]); 0.283 µM in the data set on HCT-116 (setting [7]); 0.0414 µM in the data set on SN12C (setting [8]). In addition, the GI50 with HOP-62 (setting [9]) stood at 0.227 µM. Further, the “Top 1 Cleavage” value at topoisomerase I (Table 1) is given as “++ (++, similar activity as compound A)”. In addition, the MGM (mean GI50 across cell lines) in [1] was found to be 0.272 µM.
Consider `COc1cc2c(cc1OC)-c1ncc3cc(OC)c(OC)c(OC)c3c1C2.Cl` [Compound 9ca, 1,2,3,8,9-Pentamethoxy-11H-indeno[1,2-c]isoquinoline Hydrochloride], for which the GI50 with DU-145 (setting [2]) was found to be 21.7 µM; in the data set with OVCAR-3 (setting [3]), 15.9 µM; with SF-539 (setting [4]) it was 14 µM; with UACC-62 (setting [5]) it was 7.42 µM; in the data set with MDA-MB-435 (setting [6]), 16.2 µM; with HCT-116 (setting [7]) it was 31.8 µM. Besides, the GI50 was found to be 14.4 µM in the data set on SN12C (setting [8]) and 34.8 µM with HOP-62 (setting [9]). The “Top 1 Cleavage” value at topoisomerase I (Table 2) is listed as “+ (+, weak activity)”. Moreover, the MGM (mean GI50 across cell lines) in [1] came out at 19.1 µM.
